{"source": "patent US9328374B2", "about": "“Selective culture medium and method for detecting carbapenem-resistant bacteria in a test sample” (Institut National de la Sante et de la Recherche Medicale …, priority 2011, dated 2016)", "key": {"[1]": {"test_system": "E. coli", "test": "MIC of imipenem, ertapenem and meropenem", "format": "cell-based, Escherichia coli"}, "[2]": {"test_system": "E. cloacae", "test": "MIC of imipenem, ertapenem and meropenem", "format": "cell-based, Enterobacter cloacae"}}}
{"smiles": "C[C@@H](O)[C@H]1C(=O)N2C(C(=O)O)=C(S[C@@H]3CN[C@H](C(=O)N(C)C)C3)[C@H](C)[C@H]12", "note": "[MEM, meropenem]", "values": [{"measurement": "MIC", "setting": "[1]; E. coli MAD (VIM-1 + CTX-M-3)", "result": 0.5, "unit": "µg/mL"}, {"measurement": "MIC", "setting": "[1]; E. coli MAD, VIM-1+ CTX-M-3", "result": 0.5, "unit": "µg/mL"}, {"measurement": "MIC", "setting": "[1]; E. coli MAR (Overexpressed AmpC)", "result": 2, "unit": "µg/mL"}, {"measurement": "MIC", "setting": "[1]; E. coli MAR, Overexpressed AmpC, non-carbapenemase producer", "result": 2, "unit": "µg/mL"}, {"measurement": "MIC", "setting": "[1]; E. coli MET, Chromosome-encoded extended-spectrum cephalosporinase, non-carbapenemase producer", "result": 0.012, "unit": "µg/mL"}, {"measurement": "MIC", "setting": "[1]; E. coli NAA (OXA-48 + CTX-M-24)", "result": 0.25, "unit": "µg/mL"}, {"measurement": "MIC", "setting": "[1]; E. coli OM3, OXA-48 + TEM-1 + CTX-M-15", "result": 0.38, "unit": "µg/mL"}, {"measurement": "MIC", "setting": "[1]; E. coli OM20, NDM-1 + TEM-1 + CTX-M-15", "result": 8, "unit": "µg/mL"}, {"measurement": "MIC", "setting": "[1]; E. coli OM22, OXA-48 + TEM-1 + CTX-M-15", "result": 0.25, "unit": "µg/mL"}, {"measurement": "MIC", "setting": "[1]; E. coli PSP (KPC-2)", "result": 0.5, "unit": "µg/mL"}, {"measurement": "MIC", "setting": "[1]; E. coli PSP, KPC-2 + TEM-1 + OXA-1", "result": 0.5, "unit": "µg/mL"}, {"measurement": "MIC", "setting": "[1]; E. coli RIC (NDM-1 + OXA-1 + OXA-10 + CMY-16)", "result": 1, "unit": "µg/mL"}, {"measurement": "MIC", "setting": "[1]; E. coli RIC, NDM-1 + CMY-16 + OXA-1 + OXA-10", "result": 1, "unit": "µg/mL"}, {"measurement": "MIC", "setting": "[1]; E. coli ROB (OXA-48)", "result": 0.25, "unit": "µg/mL"}, {"measurement": "MIC", "setting": "[1]; E. coli ROB, OXA-48", "result": 0.25, "unit": "µg/mL"}, {"measurement": "MIC", "setting": "[1]; E. coli SYD, CMY-2, non-carbapenemase producer", "result": 0.012, "unit": "µg/mL"}, {"measurement": "MIC", "setting": "[1]; E. coli TWA, IMP-8 + SHV-12", "result": 3, "unit": "µg/mL"}, {"measurement": "MIC", "setting": "[1]; E. coli ZAN, OXA-48 + TEM-1 + CTX-M-14", "result": 0.75, "unit": "µg/mL"}, {"measurement": "MIC", "setting": "[1]; strain E. coli 1008, TEM-1 + CTX-M-1, non-carbapenemase producer", "result": 0.016, "unit": "µg/mL"}, {"measurement": "MIC", "setting": "[1]; strain E. coli 1034, TEM-1 + SHV-38, non-carbapenemase producer", "result": 0.016, "unit": "µg/mL"}, {"measurement": "MIC", "setting": "[1]; strain E. coli 1048, TEM-1 + SHV-2a, non-carbapenemase producer", "result": 0.016, "unit": "µg/mL"}, {"measurement": "MIC", "setting": "[1]; strain E. coli 10121, CTX-M-2, non-carbapenemase producer", "result": 0.016, "unit": "µg/mL"}, {"measurement": "MIC", "setting": "[1]; strain E. coli AME, OXA-48 + CTX-M-24", "result": 0.19, "unit": "µg/mL"}, {"measurement": "MIC", "setting": "[1]; strain E. coli BON, OXA-48 + TEM-1 + CTX-M-24", "result": 0.19, "unit": "µg/mL"}, {"measurement": "MIC", "setting": "[1]; strain E. coli ECA, ACC-1, non-carbapenemase producer", "result": 0.012, "unit": "µg/mL"}, {"measurement": "MIC", "setting": "[1]; strain E. coli EVB, VEB-1, non-carbapenemase producer", "result": 0.012, "unit": "µg/mL"}, {"measurement": "MIC", "setting": "[1]; strain E. coli FOR, CTX-M-15, non-carbapenemase producer", "result": 0.012, "unit": "µg/mL"}, {"measurement": "MIC", "setting": "[1]; strain E. coli HB4, (OmpC-, OmpF-), non-carbapenemase producer", "result": 0.25, "unit": "µg/mL"}, {"measurement": "MIC", "setting": "[1]; strain E. coli JAP, IMP-1", "result": 0.5, "unit": "µg/mL"}, {"measurement": "MIC", "setting": "[1]; strain E. coli MAR, Overexpressed AmpC, non-carbapenemase producer", "result": 2, "unit": "µg/mL"}, {"measurement": "MIC", "setting": "[1]; strain E. coli MET, Chromosome-encoded extended-spectrum cephalosporinase, non-carbapenemase producer", "result": 0.012, "unit": "µg/mL"}, {"measurement": "MIC", "setting": "[1]; strain E. coli ROB, OXA-48", "result": 0.25, "unit": "µg/mL"}, {"measurement": "MIC", "setting": "[1]; strain E. coli SYD, CMY-2, non-carbapenemase producer", "result": 0.012, "unit": "µg/mL"}, {"measurement": "MIC", "setting": "[2]; E. cloacae 501, OXA-48 + TEM-1 + CTX-M-15", "result": 1.5, "unit": "µg/mL"}, {"measurement": "MIC", "setting": "[2]; E. cloacae 1012, TEM-1 + SHV-12, non-carbapenemase producer", "result": 0.016, "unit": "µg/mL"}, {"measurement": "MIC", "setting": "[2]; E. cloacae 1019, TEM-1, non-carbapenemase producer, overexpressed AmpC", "result": 0.094, "unit": "µg/mL"}, {"measurement": "MIC", "setting": "[2]; E. cloacae 1027, TEM-1 + CTX-M-15, non-carbapenemase producer", "result": 0.016, "unit": "µg/mL"}, {"measurement": "MIC", "setting": "[2]; E. cloacae 1072, TEM-1 + OXA-1, non-carbapenemase producer, overexpressed AmpC", "result": 0.064, "unit": "µg/mL"}, {"measurement": "MIC", "setting": "[2]; E. cloacae 5434 (wild type)", "result": 0.032, "unit": "µg/mL"}, {"measurement": "MIC", "setting": "[2]; E. cloacae 5434, (wild type), non-carbapenemase producer", "result": 0.032, "unit": "µg/mL"}, {"measurement": "MIC", "setting": "[2]; E. cloacae 7725, (wild type), non-carbapenemase producer", "result": 0.012, "unit": "µg/mL"}, {"measurement": "MIC", "setting": "[2]; E. cloacae 7746, (wild type), non-carbapenemase producer", "result": 0.032, "unit": "µg/mL"}, {"measurement": "MIC", "setting": "[2]; E. cloacae 10111 (TEM-1 + CTX-M-15)", "result": 0.094, "unit": "µg/mL"}, {"measurement": "MIC", "setting": "[2]; E. cloacae 10111, TEM-1 + CTX-M-15, non-carbapenemase producer, overexpressed AmpC", "result": 0.094, "unit": "µg/mL"}, {"measurement": "MIC", "setting": "[2]; E. cloacae 1008029, VIM-1+ CTX-M-3", "result": ">32", "unit": "µg/mL"}, {"measurement": "MIC", "setting": "[2]; E. cloacae 1008079, IMP-1", "result": ">32", "unit": "µg/mL"}, {"measurement": "MIC", "setting": "[2]; E. cloacae 1008187, IMP-1 + CTX-M-15", "result": 4, "unit": "µg/mL"}, {"measurement": "MIC", "setting": "[2]; E. cloacae (KPC-2)", "result": 2, "unit": "µg/mL"}, {"measurement": "MIC", "setting": "[2]; E. cloacae ARF (overexpressed AmpC)", "result": 0.12, "unit": "µg/mL"}, {"measurement": "MIC", "setting": "[2]; E. cloacae ARF, Overexpressed AmpC, non-carbapenemase producer", "result": 0.12, "unit": "µg/mL"}, {"measurement": "MIC", "setting": "[2]; E. cloacae AZA (overexpressed AmpC)", "result": 0.12, "unit": "µg/mL"}, {"measurement": "MIC", "setting": "[2]; E. cloacae AZA, Overexpressed AmpC, non-carbapenemase producer", "result": 0.12, "unit": "µg/mL"}, {"measurement": "MIC", "setting": "[2]; E. cloacae BEU, OXA-48 + TEM-1 + CTX-M-15 + SHV-12", "result": 0.5, "unit": "µg/mL"}, {"measurement": "MIC", "setting": "[2]; E. cloacae BLA (overexpressed AmpC)", "result": 0.12, "unit": "µg/mL"}, {"measurement": "MIC", "setting": "[2]; E. cloacae BLA, Overexpressed AmpC, non-carbapenemase producer", "result": 0.12, "unit": "µg/mL"}, {"measurement": "MIC", "setting": "[2]; E. cloacae CFVL, KPC-2 + TEM-3", "result": 1, "unit": "µg/mL"}, {"measurement": "MIC", "setting": "[2]; E. cloacae CLO (CTX-M-15)", "result": 0.12, "unit": "µg/mL"}, {"measurement": "MIC", "setting": "[2]; E. cloacae CLO, CTX-M-15, non-carbapenemase producer", "result": 0.12, "unit": "µg/mL"}, {"measurement": "MIC", "setting": "[2]; E. cloacae CON (overexpressed AmpC)", "result": 0.12, "unit": "µg/mL"}, {"measurement": "MIC", "setting": "[2]; E. cloacae CON, Overexpressed AmpC, non-carbapenemase producer", "result": 0.25, "unit": "µg/mL"}, {"measurement": "MIC", "setting": "[2]; E. cloacae CVB (VEB-1)", "result": 0.12, "unit": "µg/mL"}, {"measurement": "MIC", "setting": "[2]; E. cloacae CVB, VEB-1, non-carbapenemase producer", "result": 0.12, "unit": "µg/mL"}, {"measurement": "MIC", "setting": "[2]; E. cloacae HMG, KPC-2 + TEM-1", "result": 16, "unit": "µg/mL"}, {"measurement": "MIC", "setting": "[2]; E. cloacae HPTU (KPC-2 + TEM-1 + SHV-11)", "result": 1.5, "unit": "µg/mL"}, {"measurement": "MIC", "setting": "[2]; E. cloacae HPTU, KPC-2 + TEM-1 + SHV-11", "result": 1.5, "unit": "µg/mL"}, {"measurement": "MIC", "setting": "[2]; E. cloacae IR38 (NDM-1 + CTX-M-15)", "result": 2, "unit": "µg/mL"}, {"measurement": "MIC", "setting": "[2]; E. cloacae IR38, NDM-1 + CTX-M-15", "result": 2, "unit": "µg/mL"}, {"measurement": "MIC", "setting": "[2]; E. cloacae KAR, VIM-1+ SHV-70", "result": 0.5, "unit": "µg/mL"}, {"measurement": "MIC", "setting": "[2]; E. cloacae TAW (IMP-8 + SHV-12)", "result": 0.5, "unit": "µg/mL"}, {"measurement": "MIC", "setting": "[2]; E. cloacae TAW, IMP-8 + SHV-12", "result": 0.5, "unit": "µg/mL"}, {"measurement": "MIC", "setting": "[2]; E. cloacae TUR (OXA-48 + SHV-5)", "result": 0.5, "unit": "µg/mL"}, {"measurement": "MIC", "setting": "[2]; E. cloacae TUR, OXA-48 + SHV-5", "result": 0.5, "unit": "µg/mL"}, {"measurement": "MIC", "setting": "[2]; E. cloacae TWA, IMP-8", "result": 1, "unit": "µg/mL"}, {"measurement": "MIC", "setting": "[2]; strain E. cloacae 10111, TEM-1 + CTX-M-15, non-carbapenemase producer", "result": 0.094, "unit": "µg/mL"}, {"measurement": "MIC", "setting": "[2]; strain E. cloacae BLA, Overexpressed AmpC, non-carbapenemase producer", "result": 0.12, "unit": "µg/mL"}, {"measurement": "MIC", "setting": "[2]; strain E. cloacae CLO, CTX-M-15, non-carbapenemase producer", "result": 0.12, "unit": "µg/mL"}, {"measurement": "MIC", "setting": "[2]; strain E. cloacae CON, Overexpressed AmpC, non-carbapenemase producer", "result": 0.12, "unit": "µg/mL"}, {"measurement": "MIC", "setting": "[2]; strain E. cloacae CVB, VEB-1, non-carbapenemase producer", "result": 0.12, "unit": "µg/mL"}, {"measurement": "MIC", "setting": "[2]; strain E. cloacae HPTU, KPC-2 + TEM-1 + SHV-11", "result": 1.5, "unit": "µg/mL"}, {"measurement": "MIC", "setting": "[2]; strain E. cloacae TAW, IMP-8 + SHV-12", "result": 0.5, "unit": "µg/mL"}, {"measurement": "MIC", "setting": "[2]; strain E. cloacae TUR, OXA-48 + SHV-5", "result": 0.5, "unit": "µg/mL"}]}
